Calls of active or inactive are those of the source.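 How the source made its calls: active means compounds giving half or more protection of infected cells from virus-caused growth loss, again on retest; inactive means the rest.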 Some results are limits rather than exact numbers.

In PubChem BioAssay AID179 (DTP/NCI, 2004) one finds EC50, IC50 and outcome data, which are given here for 52 compounds.

This experiment relates to CEM cells HIV-1 protection, formazan growth assay. The experiment is described as follows: NCI AIDS Antiviral Assay. The conditions noted are these: for IC50: measured here: growth of uninfected CEM cells. The method in brief:
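Screen of anti-HIV-1 activity in human CEM cells using a formazan-based growth measurement at five drug concentrations. Hits with 50% or greater protection were repeated, and confirmation required reproducible complete protection.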

As for `CCOC(=O)/C(F)=C/c1cccc([N+](=O)[O-])c1`, the EC50 was > 151 µM and the IC50 is > 151 µM.
For `C/C(Cl)=N/OC(=O)Nc1ccc(S(N)(=O)=O)c(C)c1`, the EC50 is > 20 µM and the IC50 turned out to be 8.71 µM.
In the same order, the values of `CC(C)(C)c1ccc(Oc2ccc(C#N)c(C#N)c2)c(C(C)(C)C)c1` are > 77.6 µM and > 77.6 µM.
In the same order, the values of `Cc1cccc(C)c1OC(F)(F)c1nc2ccccc2o1` are > 200 µM and 30.2 µM.
For the compound `CC(C)N(CCn1c2c3ccccc3ccc2c2oc(=O)c3ccccc3c21)C(C)C`, the EC50 is > 22.4 µM and the IC50 is > 22.4 µM.
For the compound `NNC(=O)CCC(=O)NC1C2CC3CC(C2)CC1C3` (configuration not stated), the EC50 was > 676 µM and the IC50 is > 676 µM.
As for `COC1C2c3cc4c(cc3CC(C#N)(c3ccccc32)N1C(=O)c1ccccc1)OCO4` (configuration not stated), the outcome was inactive.
Consider `COc1cccc(/C=N/[N-]C(N)=O)c1[O-].[OH3+].[Zn+2]`, for which the EC50 was > 447 µM and the IC50 turned out to be 132 µM.
With `CN(C)C(=S)N/N=C\C=N/NC(=S)N(C)C`, the EC50 was > 0.2 µM and the half-maximal inhibitory concentration (IC50) is 0.117 µM.
In the same order, the values of `COc1cc(C(=O)CC2(O)C(=O)Nc3c(Cl)cc(Cl)cc32)ccc1O` (configuration not stated) are > 468 µM and 91.2 µM.
In the same order, the values of `N#C/C(=C\c1ccccc1)c1cccc(F)c1` are > 200 µM and 46.8 µM.
Take `CC1=Nn2c(nnc2-c2ccc(N)cc2)NC(C)(C)C1`: the EC50 is > 933 µM and the IC50 is > 933 µM.
Consider `Cn1c(=O)c2[nH]c(Nc3ccccc3)nc2n(C)c1=O`, for which the EC50 is > 200 µM and the 50% inhibitory concentration (IC50) was 120 µM.
For the compound `Cn1c(=O)nc2n(-c3cc(Cl)ccc3Cl)c3ccccc3nc-2c1=O`, the outcome was inactive.
For `COc1ccc(N2C(=O)C3c4[nH]c5ccccc5c4C4CCCCCCCC4C3C2=O)cc1` (configuration not stated), the EC50 is > 200 µM and the IC50 was 81.3 µM.
For `CC1OC(OC2C(O[C@@H]3C[C@@H]4CC[C@@H]5[C@H](CC[C@]6(C)[C@@H]7[C@H](C[C@@H]56)O[C@]5(CC[C@@H](C)CO5)[C@H]7C)[C@@]4(C)C[C@H]3O)OC(CO)C(OC3OC(CO)C(O)C(O)C3O)C2O)C(O)C(O)C1O` (some centres not stated), in that order: > 10 µM and 1.82 µM.
For `Clc1ccc(CN2COc3c(ccc4cccnc34)C2)cc1Cl`, in that order: > 200 µM and 1.29 µM.
On to `CC(C)(C)[Si](C)(C)OCC1OC(n2ccc(=O)[nH]c2=O)C(OC(=S)Oc2ccccc2)C1O[Si](C)(C)C(C)(C)C` (configuration not stated), for which the EC50 was > 200 µM and the IC50 amounted to 2 µM.
In the same order, the values of `C/C(Cl)=N/OC(=O)Nc1ccc(F)c([N+](=O)[O-])c1` are > 200 µM and 3.24 µM.
As to `CCN(CC)CCC(=O)/C=C/c1ccc(Cl)c(Cl)c1`, the EC50 was > 200 µM and the IC50 was 5.13 µM.
For `COC(=O)C1=C(C=O)C2C=CC1C2` (configuration not stated), the outcome was inactive.
Turning to `COc1ccc2c(c1)CCCN2S(=O)(=O)c1ccccc1[N+](=O)[O-]`, the EC50 was > 200 µM and the half-maximal inhibitory concentration (IC50) was found to be 21.4 µM.
For `COc1ccc2nc3c4ccccc4scc-3c2c1`, in that order: > 200 µM and 0.295 µM.
In the same order, the values of `NC1NCCC(=O)N1CCc1c[nH]c2ccccc12` (configuration not stated) are > 200 µM and 36.3 µM.
For `COC(=O)C(CCc1cc(OC)ccc1I)C1=CCC2(CC1)OCCO2` (configuration not stated), in that order: > 38 µM and > 38 µM.
Regarding `CC(=O)C1(C(=O)C(=[N+]=[N-])S(=O)(=O)c2ccccc2)CC1`, the EC50 is > 851 µM and the IC50 is 8.32 µM.
Turning to `CCOc1ccccc1N1C(=O)C(=O)C(c2nc3ccccc3o2)/C(=N\N)C1=O` (configuration not stated), the outcome was inactive.
With `CCOC(=O)C(C(=O)c1ccccc1)C(=O)c1ccccc1`, the EC50 was > 45.7 µM and the IC50 is > 45.7 µM.
For `Cc1cc2c(cc1C)[n+](=O)c(C(=O)CC(=O)C(=O)Nc1ccccc1C(C)C)c(C)n2[O-]`, the EC50 was > 575 µM and the IC50 was > 575 µM.
`CCN(CC)c1c(C)nnc2c3c(-c4ccccc4)c(-c4ccccc4)nnc3nn12`: the EC50 was > 200 µM and the IC50 is > 200 µM.
Take `N#C/C(=C\n1c(=S)[nH]c2ccccc21)c1nc2ccccc2s1`: the EC50 was > 200 µM and the half-maximal inhibitory concentration (IC50) is > 200 µM.
As to `NC(=O)c1cccn1Cc1ccccc1SSc1ccccc1Cn1cccc1C(N)=O`, the EC50 is > 15.8 µM and the IC50 turned out to be 7.08 µM.
For `Clc1ccc(OCc2nc3ccccc3[nH]2)cc1`, in that order: > 200 µM and 162 µM.
For `CC(=O)CCCCn1c(=O)c2c(nc(Br)n2C)n(C)c1=O`, in that order: > 200 µM and 52.5 µM.
As for `O=c1[nH]nc(-c2ccccc2)n1/N=C/c1ccncc1`, the EC50 is > 200 µM and the IC50 was 52.5 µM.
For `O=Nc1c(O)ccc2ccccc12.O=Nc1c(O)ccc2ccccc12.O=Nc1c([O-])ccc2ccccc12.[Fe+3]`, in that order: > 129 µM and 95.5 µM.
For `Cc1nn(C(=O)c2ccc(Cl)cc2)c2c1C(c1ccccc1[N+](=O)[O-])SC(N)=N2` (configuration not stated), in that order: > 200 µM and 105 µM.
Turning to `O=[N+]([O-])c1ccc2c(c1)-c1ccccc1S2(=O)=O`, the result was inactive.
As for `CCCCCCCCCC(=O)CC(=O)c1c(O)cccc1O`, the EC50 was > 23.4 µM and the IC50 was > 23.4 µM.
For `COc1ccc(/C=C(\C(=O)OCC(C)C)c2ccc(OC)c(OC)c2)cc1OC`, the EC50 was > 200 µM and the 50% inhibitory concentration (IC50) is 166 µM.
For the compound `COC1/C=C\OC2(C)Oc3c(C)c(O)c4c(c3C2=O)C(=O)C=C(NC(=O)/C(C)=C\C=C/C(C)C(O)C(C)C(O)C(C)C(OC(C)=O)C1C)C4=O` (configuration not stated), the EC50 was > 200 µM and the IC50 was 2.69 µM.
In the same order, the values of `NCCNCc1c2ccccc2c(CNCCN)c2ccccc12` are > 95.5 µM and 7.94 µM.
In the same order, the values of `CCCCCCCCCCCCCC(=O)OCC1OC(n2cc(C)c(=O)[nH]c2=O)CC1O` (configuration not stated) are > 200 µM and 11.7 µM.
For `CC(C)=C[C@@H]1C[C@H](n2cc(C)c(=O)[nH]c2=O)ON1CCOS(=O)(=O)c1ccc(C)cc1`, in that order: > 200 µM and 81.3 µM.
Turning to `CN(C(=O)C12C3C4C1C1C4(C(=O)C45C6C7C4C4C5C6C74C)C3C12C)C(C)(C)C` (configuration not stated), the outcome was inactive.
With `N#Cc1ccccc1SSc1ccccc1C#N`, the EC50 is > 200 µM and the IC50 turned out to be 11.7 µM.
For `CCOc1ccc(N)c(S)c1`, in that order: > 200 µM and 26.9 µM.
For the compound `Cc1ccc(Cl)c2c(=O)c3ccc([N+](=O)[O-])cc3sc12`, the EC50 was > 151 µM and the IC50 was > 151 µM.
On to `Cc1cc(C)nc(NC(=O)Nc2cccc(C(F)(F)F)c2)c1`, for which the EC50 was > 200 µM and the IC50 is > 200 µM.
For the compound `CCCN1CN(C(C(=O)N[C@@H]2C(=O)N3C(C(=O)O)=C(C)CSC23)c2ccccc2)CSC1=S` (some centres not stated), the EC50 was > 355 µM and the IC50 turned out to be 204 µM.
Regarding `C/C=C(\C)c1cc(OC)c(C)c2c1C(=O)Oc1c(C)c(O)c(Cl)c(/C(C)=C/C)c1O2`, the result was inactive.
Regarding `CCOC(=O)c1cc2cc3c4c(c2oc1=O)CCCN4CCC3`, the EC50 is > 115 µM and the IC50 was > 115 µM.

By EC50 is commonly meant the concentration giving half of the maximal effect. By IC50 is commonly meant the concentration at which inhibition is half-maximal. A low value points to greater potency in that assay.
